The values below come from patent US20200239530A1, “COMPOUNDS AND METHODS OF MODULATING PROTEIN DEGRADATION” (Vividion Therapeutics, Inc., priority 2017, published 2020).

Common to all, as to experiment: Cysteine liganding, probe competition
Holding throughout (format): binding

For assay [1], the target named is T1, NOC2L Nucleolar complex protein 2 homolog (Homo sapiens, UniProt Q9Y3T9).
T1 construct: Cells were resuspended in cold PBS on ice and sonicated with a probe sonicator to achieve lysis; endogenous in cells
The method, boiled down: (§1)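 Lysates from probe-sonicated cells in PBS (5 mg/ml proteome) were exposed to compound for 1 hr at 25° C, then labelled with desthiobiotin iodoacetamide probe (10 mM stock) for 1 hr at 25° C. Probe-tagged peptides were streptavidin-enriched after trypsin digestion.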

For assay [2], the target named is T2, NUBP1 Cytosolic Fe—S cluster assembly factor NUBP1 (Homo sapiens, UniProt P53384).
T2 construct: Cells were resuspended in cold PBS on ice and sonicated with a probe sonicator to achieve lysis; endogenous in cells
T2 sequence (P53384 1-320): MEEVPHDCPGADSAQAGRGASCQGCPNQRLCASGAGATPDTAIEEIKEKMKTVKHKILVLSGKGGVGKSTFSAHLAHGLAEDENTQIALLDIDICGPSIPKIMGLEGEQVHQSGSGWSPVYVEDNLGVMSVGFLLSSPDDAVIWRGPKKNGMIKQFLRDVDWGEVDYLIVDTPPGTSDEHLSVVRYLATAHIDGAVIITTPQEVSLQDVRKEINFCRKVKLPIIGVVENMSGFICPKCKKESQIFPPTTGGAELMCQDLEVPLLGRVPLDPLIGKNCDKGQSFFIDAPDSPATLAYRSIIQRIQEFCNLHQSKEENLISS
As to conditions: for Liganded: NUBP1 Res# 31, uniprot P53384. The method, boiled down: as §1

Assay [3] deals with T3, TRMT1L TRMT1-like protein (Homo sapiens, UniProt Q7Z2T5).
T3 construct: Cells were resuspended in cold PBS on ice and sonicated with a probe sonicator to achieve lysis; endogenous in cells
T3 sequence (Q7Z2T5 1-733): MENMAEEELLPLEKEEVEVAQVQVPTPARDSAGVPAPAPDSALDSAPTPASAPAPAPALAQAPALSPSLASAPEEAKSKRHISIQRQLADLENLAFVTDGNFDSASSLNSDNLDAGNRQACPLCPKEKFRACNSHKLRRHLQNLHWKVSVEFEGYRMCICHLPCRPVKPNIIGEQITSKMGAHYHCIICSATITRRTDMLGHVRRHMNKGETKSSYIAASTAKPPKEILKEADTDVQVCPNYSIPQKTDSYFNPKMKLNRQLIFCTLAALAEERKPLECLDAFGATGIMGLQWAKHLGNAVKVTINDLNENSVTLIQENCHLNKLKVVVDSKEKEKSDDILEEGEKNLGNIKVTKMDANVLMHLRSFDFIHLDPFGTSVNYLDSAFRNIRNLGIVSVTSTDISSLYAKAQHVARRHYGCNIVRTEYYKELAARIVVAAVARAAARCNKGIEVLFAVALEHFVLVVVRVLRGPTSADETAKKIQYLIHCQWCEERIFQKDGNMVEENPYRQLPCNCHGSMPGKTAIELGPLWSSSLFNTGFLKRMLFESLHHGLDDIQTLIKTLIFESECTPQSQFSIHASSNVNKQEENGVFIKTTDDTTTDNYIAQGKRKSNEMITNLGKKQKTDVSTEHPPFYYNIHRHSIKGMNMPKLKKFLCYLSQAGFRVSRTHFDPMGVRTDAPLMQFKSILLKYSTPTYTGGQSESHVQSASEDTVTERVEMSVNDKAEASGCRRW
The method, boiled down: as §1

[4] abbreviates: uniprot Q7Z2T5, in % (unit assumed).

Regarding `O=C(CCl)Nc1cc(C(F)(F)F)cc(C(F)(F)F)c1` [KBO3], the “100 Max” value in assay [1] (uniprot Q9Y3T9) is 29.97; in assay [2] (uniprot P53384, in % (unit assumed)) it was 28.64; in assay [3] (setting [4]) it was −4.62. Also, the 100 ave in assay [1] (uniprot Q9Y3T9) is 7.195; in assay [2] (uniprot P53384), 7.3775; in assay [3] (uniprot Q7Z2T5), −17.83. Moreover, the “500 Max” value came to 59.2 in assay [1] (uniprot Q9Y3T9), 75.8 in assay [2] (uniprot P53384) and 36.38 in assay [3] (setting [4]). The 500 ave in assay [1] (uniprot Q9Y3T9) was determined as 56.82; in assay [2] (uniprot P53384), 55.66; in assay [3] (uniprot Q7Z2T5), 36.38. Besides, the Liganded result in assay [2] is “YES”.

For `COc1ccc2c(c1)CCCN2C(=O)CCl` [KB02], the Liganded result in assay [1] (NOC2L Res# 585, uniprot Q9Y3T9) was “YES”; in assay [2], “YES”; in assay [3] (TRMT1L Res# 239, uniprot Q7Z2T5), “YES”.
